Numbers after ± are expanded uncertainties.
Assay: molar heat capacity at constant pressure
Details: 101.33 kPa, Liquid, Small sample (50 mg) DSC

NCCCCCCCN [1,7-diaminoheptane]
Details	molar heat capacity at constant pressure [J/K/mol]
302.15 K	332.76 ± 5.2
303.65 K	332.93 ± 5.2
305.15 K	333.11 ± 5.2
306.65 K	333.29 ± 5.2
308.15 K	333.48 ± 5.2
309.65 K	333.67 ± 5.2
311.15 K	333.86 ± 5.2
312.65 K	334.06 ± 5.2
314.15 K	334.27 ± 5.2
315.65 K	334.48 ± 5.2
317.15 K	334.7 ± 5.2
318.65 K	334.92 ± 5.2
320.15 K	335.15 ± 5.2
321.65 K	335.38 ± 5.2
323.15 K	335.62 ± 5.2
324.65 K	335.87 ± 5.2
326.15 K	336.12 ± 5.2
327.65 K	336.38 ± 5.2
329.15 K	336.64 ± 5.2
330.65 K	336.91 ± 5.2
332.15 K	337.18 ± 5.2
333.65 K	337.47 ± 5.2
335.15 K	337.76 ± 5.2
336.65 K	338.05 ± 5.2
338.15 K	338.35 ± 5.2
339.65 K	338.66 ± 5.2
341.15 K	338.98 ± 5.2
342.65 K	339.3 ± 5.3
344.15 K	339.63 ± 5.3
345.65 K	339.97 ± 5.3
347.15 K	340.31 ± 5.3
348.65 K	340.66 ± 5.3
350.15 K	341.02 ± 5.3
351.65 K	341.39 ± 5.3
353.15 K	341.76 ± 5.3

NCCCN [1,3-propanediamine]
Details	molar heat capacity at constant pressure [J/K/mol]
293.15 K	203.05 ± 3.1
294.65 K	203.21 ± 3.1
296.15 K	203.37 ± 3.1
297.65 K	203.53 ± 3.1
298.15 K	203.59 ± 3.1
299.15 K	203.7 ± 3.2
300.65 K	203.86 ± 3.2
302.15 K	204.03 ± 3.2
303.65 K	204.19 ± 3.2
305.15 K	204.36 ± 3.2
306.65 K	204.53 ± 3.2
308.15 K	204.7 ± 3.2
309.65 K	204.87 ± 3.2
311.15 K	205.04 ± 3.2
312.65 K	205.21 ± 3.2
314.15 K	205.38 ± 3.2
315.65 K	205.56 ± 3.2
317.15 K	205.73 ± 3.2
318.65 K	205.91 ± 3.2
320.15 K	206.08 ± 3.2
321.65 K	206.26 ± 3.2
323.15 K	206.43 ± 3.2
324.65 K	206.61 ± 3.2
326.15 K	206.79 ± 3.2
327.65 K	206.96 ± 3.2
329.15 K	207.14 ± 3.2
330.65 K	207.32 ± 3.2
332.15 K	207.5 ± 3.2
333.65 K	207.67 ± 3.2
335.15 K	207.85 ± 3.2
336.65 K	208.03 ± 3.2
338.15 K	208.2 ± 3.2
339.65 K	208.38 ± 3.2
341.15 K	208.56 ± 3.2
342.65 K	208.73 ± 3.2
344.15 K	208.91 ± 3.2
345.65 K	209.08 ± 3.2
347.15 K	209.26 ± 3.2
348.65 K	209.43 ± 3.2
350.15 K	209.6 ± 3.2
351.65 K	209.78 ± 3.2
353.15 K	209.95 ± 3.2

NCCN [ethane-1,2-diamine]
Details	molar heat capacity at constant pressure [J/K/mol]
293.15 K	172.34 ± 2.7
294.65 K	172.43 ± 2.7
296.15 K	172.53 ± 2.7
297.65 K	172.63 ± 2.7
298.15 K	172.66 ± 2.7
299.15 K	172.73 ± 2.7
300.65 K	172.84 ± 2.7
302.15 K	172.95 ± 2.7
303.65 K	173.06 ± 2.7
305.15 K	173.17 ± 2.7
306.65 K	173.29 ± 2.7
308.15 K	173.41 ± 2.7
309.65 K	173.53 ± 2.7
311.15 K	173.66 ± 2.7
312.65 K	173.79 ± 2.7
314.15 K	173.92 ± 2.7
315.65 K	174.05 ± 2.7
317.15 K	174.18 ± 2.7
318.65 K	174.31 ± 2.7
320.15 K	174.45 ± 2.7
321.65 K	174.59 ± 2.7
323.15 K	174.72 ± 2.7
324.65 K	174.86 ± 2.7
326.15 K	175 ± 2.7
327.65 K	175.15 ± 2.7
329.15 K	175.29 ± 2.7
330.65 K	175.43 ± 2.7
332.15 K	175.58 ± 2.7
333.65 K	175.72 ± 2.7
335.15 K	175.86 ± 2.7
336.65 K	176.01 ± 2.7
338.15 K	176.15 ± 2.7
339.65 K	176.3 ± 2.7
341.15 K	176.44 ± 2.7
342.65 K	176.59 ± 2.7
344.15 K	176.73 ± 2.7
345.65 K	176.87 ± 2.7
347.15 K	177.02 ± 2.7
348.65 K	177.16 ± 2.7
350.15 K	177.3 ± 2.8
351.65 K	177.44 ± 2.8
353.15 K	177.58 ± 2.8

NCCCCCCN [1,6-hexanediamine]
Details	molar heat capacity at constant pressure [J/K/mol]
314.15 K	301.08 ± 4.7
315.65 K	301.25 ± 4.7
317.15 K	301.42 ± 4.7
318.65 K	301.59 ± 4.7
320.15 K	301.77 ± 4.7
321.65 K	301.95 ± 4.7
323.15 K	302.14 ± 4.7
324.65 K	302.33 ± 4.7
326.15 K	302.53 ± 4.7
327.65 K	302.74 ± 4.7
329.15 K	302.95 ± 4.7
330.65 K	303.17 ± 4.7
332.15 K	303.4 ± 4.7
333.65 K	303.64 ± 4.7
335.15 K	303.88 ± 4.7
336.65 K	304.13 ± 4.7
338.15 K	304.4 ± 4.7
339.65 K	304.67 ± 4.7
341.15 K	304.95 ± 4.7
342.65 K	305.25 ± 4.7
344.15 K	305.55 ± 4.7
345.65 K	305.87 ± 4.7
347.15 K	306.2 ± 4.7
348.65 K	306.54 ± 4.8
350.15 K	306.89 ± 4.8
351.65 K	307.26 ± 4.8
353.15 K	307.64 ± 4.8

NCCCCN [1,4-butanediamine]
Details	molar heat capacity at constant pressure [J/K/mol]
298.15 K	236.33 ± 3.7
299.15 K	236.45 ± 3.7
300.65 K	236.61 ± 3.7
302.15 K	236.77 ± 3.7
303.65 K	236.94 ± 3.7
305.15 K	237.09 ± 3.7
306.65 K	237.25 ± 3.7
308.15 K	237.41 ± 3.7
309.65 K	237.56 ± 3.7
311.15 K	237.72 ± 3.7
312.65 K	237.87 ± 3.7
314.15 K	238.03 ± 3.7
315.65 K	238.18 ± 3.7
317.15 K	238.34 ± 3.7
318.65 K	238.49 ± 3.7
320.15 K	238.65 ± 3.7
321.65 K	238.81 ± 3.7
323.15 K	238.97 ± 3.7
324.65 K	239.13 ± 3.7
326.15 K	239.29 ± 3.7
327.65 K	239.46 ± 3.7
329.15 K	239.63 ± 3.7
330.65 K	239.8 ± 3.7
332.15 K	239.98 ± 3.7
333.65 K	240.15 ± 3.7
335.15 K	240.34 ± 3.7
336.65 K	240.52 ± 3.7
338.15 K	240.71 ± 3.7
339.65 K	240.91 ± 3.7
341.15 K	241.11 ± 3.7
342.65 K	241.32 ± 3.7
344.15 K	241.53 ± 3.7
345.65 K	241.74 ± 3.8
347.15 K	241.97 ± 3.8
348.65 K	242.2 ± 3.8
350.15 K	242.43 ± 3.8
351.65 K	242.68 ± 3.8
353.15 K	242.93 ± 3.8

NCCCCCCCCCN [1,9-diaminononane]
Details	molar heat capacity at constant pressure [J/K/mol]
311.15 K	398.93 ± 6.2
312.65 K	399.04 ± 6.2
314.15 K	399.17 ± 6.2
315.65 K	399.32 ± 6.2
317.15 K	399.47 ± 6.2
318.65 K	399.64 ± 6.2
320.15 K	399.82 ± 6.2
321.65 K	400.02 ± 6.2
323.15 K	400.22 ± 6.2
324.65 K	400.44 ± 6.2
326.15 K	400.67 ± 6.2
327.65 K	400.92 ± 6.2
329.15 K	401.17 ± 6.2
330.65 K	401.44 ± 6.2
332.15 K	401.72 ± 6.2
333.65 K	402.02 ± 6.2
335.15 K	402.32 ± 6.2
336.65 K	402.64 ± 6.2
338.15 K	402.97 ± 6.2
339.65 K	403.32 ± 6.2
341.15 K	403.67 ± 6.2
342.65 K	404.04 ± 6.3
344.15 K	404.43 ± 6.3
345.65 K	404.82 ± 6.3
347.15 K	405.23 ± 6.3
348.65 K	405.65 ± 6.3
350.15 K	406.08 ± 6.3
351.65 K	406.52 ± 6.3
353.15 K	406.98 ± 6.3
